Results: patent US6262095A, “Use of tricyclic derivatives of 1,4-dihydro-1,4-dioxo-1H-naphthalene, novel compounds obtained and their application in theraphy” (Laboratoire Innothera, priority 1995, dated 2001)

Experiments:
mice = experiment: Single oral administration toxicity in mice; assay type: in vivo, mouse; conditions: single oral administration, 1 g/kg
Source text: Moreover, the compounds of the invention and their possible salts have a very low toxicity.

[1] = tested on: saphenous vein in rabbits; experiment: Potentiation of the contractile response of the rabbit saphenous vein to electrical stimulation; assay type: cell-based; conditions: Oryctolagus cuniculus, read-out: increase of contractile response due to electrical stimulation
Description: (§1) The contractile effects are measured in vitro under static conditions on vascular capacitance or resistance rings of saphenous, femoral, jugular, mesenteric, and caval veins . . . and on femoral, carotid, basilar, or mesenteric arteries, as well as the thoracic or abdominal aorta . . . in rats (Wistar, 200-250 g), rabbits (New Zealand, 2-2.5 kg), guinea pigs (Dunkin Hartley 250-300 g).
(§2) The rings are placed in a chamber for isolated organs (25 mL for capacitance vessels and 2.5 mL for resistance vessels according to Mulvany), and maintained under isometric conditions using two rigid threads inserted inside the vessel, avoiding causing damage to the endothelium. The vessels are bathed in a modified Krebs solution (in mM: NaCl=118; KCl=4.6; CaCl2 =2.5; MgSO4 =1.2; KH2 PO4 =1.17; NaHCO3 =25; glucose=11), continuously aerated using a gaseous mixture of 95% O2 and 5% Co2, at a pH=7.4, and regulated by thermostat at 37° C. The rings are adjusted to their optimal point as far as the tension-length relationship is concerned. […] The pharmacological studies are carried out after a few standardized preliminary contractile stimulations using a depolarizing solution (hyperpotassic type obtained by replacing NaCl with KCl in equimolar quantities), along with rinsings and periods of equilibration in a pure physiological solution. […]

[2] = tested on: saphenous vein in rabbits; experiment: Potentiation of the contractile response of the rabbit saphenous vein to serotonin; assay type: cell-based
Description: as §1, §2

carotid arteries of rats = experiment: Contraction of rat carotid arteries under depolarizing hyperpotassic conditions; assay type: cell-based; conditions: pH 7.4, read-out: ED50 (contraction)
Description: as §1, §2

[3] = tested on: dorsal cutaneous chamber in hamsters; experiment: Dorsal cutaneous chamber in hamsters (microcirculation, histamine); assay type: in vivo; conditions: hamster, 28 mg/kg i.v. bolus, after histamine 1 mg/kg i.v.
Description: In the conscious animal, the arterial pressures are measured according to the classical method derived from Riva Rocci, by the analysis of the acoustical wave transmitted at the arterial level and transformed by a ceramic piezo transducer placed on the tail of the rat, downstream from a sleeve that is automatically inflated by a pressure generator. At the microcirculatory level, the variations in the sections of the veinules and arterioles are studied in vivo in the model of the dorsal cutaneous chamber of conscious hamsters, after a video microscopic recording (microscope Leitz Ergolux equipped with a halogen source for the illumination and its black-and-white CD video camera HPR 610) and computer analysis (software Visicap, Pack ICAP) of the images.
After anesthesia with sodium pentobarbital (60 mg/kg in i.p. administration), the back of the animal is shaved and hair is pulled so as to be able to put an observation chamber (Professor Gebhard, Heidelberg) on the back skin. The two parts of this chamber are sewn after careful removal of a certain level of skin thicknesses, which can impede the observation. A jugular catheter is placed for the i.v. administration of the products, 48 h after the operation.
The effect of the compounds on the hyperpermeability induced by inflammatory agents, such as histamine and bradykinin, is also studied after intravenous injection in a bolus in the model of the dorsal cutaneous chamber of hamsters and according to the method developed by Gimeno et al., described earlier ("A new technique using intravital videomicroscopy for macromolecular permeability measurement," 18th European Congress on Microcirculation, Rome, 1994) using videomicroscopy and image analysis by quantification of the distribution of the intra- and extravascular fluorescence of the fluorescent marker (FITC-Dextran) injected in a bolus through the jugular catheter (63 mg/kg for a volume defined at 1 mL/kg). The microscope is equipped with a fluorescence source and a combination of filters (excitation in the blue range 450-490 nm, and 515-nm stop filter).

[4] = tested on: pleurisy by carrageenin in rats; experiment: Pleurisy induced by carrageenin in rats; assay type: in vivo; conditions: rat, oral 3×5 mg
Description: The anti-inflammatory activity of the compounds is also studied by measuring the inhibition of the edema and the leukocyte migration after the induction of pleurisy in rats by the injection of carrageenin into the pleural cavity (Almeida et al., J. Pharmacol. Exp. Therap., 1980, Vol. 214: p. 74). The rats are treated orally using the compounds 2 h before the injection of carrageenin, and 2 and 4 h after this injection. After a predetermined time (6 h) following the induction of pleurisy, the rats are sacrificed; the pleural liquid is recovered by aspiration, and its volume is measured. The leukocytic cells are counted using the "cell counter" technique. The results are expressed as the number of leukocytes in the exudate expressed with respect to 100 g of animal weight and compared with those of the control lot.

[5] = tested on: arterial pressure of the anesthetized rat; experiment: Arterial pressure of the anesthetized rat; assay type: in vivo; conditions: i.v. bolus at least up to 28 mg/kg
Description: The contractile effects are also measured in vitro under dynamic flow conditions, by the pressure developed by the vascular beds that are perfused at a constant flow rate. At the mesenteric level, the selective effect on veins is studied using the model of a double simultaneous and separate infusion of the arterial and venous networks model developed by T. Warner (British J. Pharmacol., 1990, Vol. 99, pp. 427-433). The separation of the two networks is achieved by cutting the vessels and the tissues along the intestinal border. The networks are perfused at 2 mL.min^-1 with a Krebs solution (37.5° C.), which is aerated using 95% O2 and 5% CO2. In vivo, the arterial and venous pressures are measured in the anesthetized animal, under basal conditions and after circulatory arrest caused by the swelling of a balloon catheter introduced at the level of the left atrium. During the cardiac arrest, the venous tone (average circulatory filling pressure at a constant blood volume) is calculated from the venous and arterial pressures measured at equilibrium and corrected as a function of the relative differences in compliance between these two networks (Samar & Coleman, Am. J. Physiol., 1978, Vol. 234: pp. H94-100; Yamamoto et al., Am. J. Physiol., 1980, Vol. 238: pp. H823-828).

Structure (SMILES): O=C1c2ccccc2C(=O)c2sc(-c3ccco3)nc21 [Example n, 4,9-Dihydro-4,9-dioxo-2-(2-furyl)-naphtho[2,3-d]thiazole]
- observed signs (mice): red urine
- toxic effect and mortality (mice): no observable toxic effect and no mortality
- activation at 0.3 µM [1]: 200%
- contractile response due to serotonin [2]: selectively potentiates
- EC50 (carotid arteries of rats): 300 nM
- arteriolar diameter [3]: not the arteriolar diameter
- histamine-induced vascular hyperpermeability [3]: reduces the vascular hyperpermeability
- veinule diameter [3]: reduces the veinule diameter
- volume of pulmonary exudate [4]: significantly decreases the volume of pulmonary exudate
- arterial pressure [5]: does not affect the arterial pressure
